Measured values: patent US8227434B1, “Materials and methods for treating oncological disorders” (H. Lee Moffitt Cancer Center & Research Institute, Inc., priority 2003, dated 2012)

Columns and labels:
LR5 cell line = LR5 cell line (Bellamy et al., 1991); cited from earlier work
LR5 cells = test: Cell-cycle analysis (BrDU/PI flow cytometry); type: cell-based, human; details: 48 h post 10 μM melphalan, 2 hour treatment
Method: (§1) To check the melphalan effect on cell cycle progressing, 8226 and LR5 were treated with 10 μM, 25 μM and 50 μM of melphalan and collected at 24 h and 48 h. Cells were then fixed with 70% EtOH at 4° C. overnight; and resuspended with 500 μl of PBS containing 25 μg/ml propidium Iodide (PI) (Sigma, St. Louis, Mo.) and 1.25 mg/ml Rnase A (Invetrogen) and incubated at 37° C. for 30 minutes in the dark. BrDU/PI staining was done as described (Hazlehurst et al., 2000). Briefly, within various of time post-drug treatment, cells were treated with 10 μM Bromodeoxyuridine (BrDU) at 37° C. for 30 mins, fixed in 70% ethanol., denatured (2MHCl) and neutralized (0.1M sodium borate). Cell were stained with anti-BrDU FITC antibody (BD, Phamingen), then resuspended with 500 μl of PBS containing 25 μg/ml propidium Iodide (PI) (Sigma, St. Louis, Mo.) and 1.25 mg/ml Rnase A (Invetrogen) and incubated at 37° C. for 30 mins in the dark. Nuclear staining was analyzed on a FACScan flow cytometer (Becton Dickinson, San Jose, Calif.). Watson (Pragmatic) from FlowJo 4.4.4 was used for DNA content analysis.

8226 cells [1] = test: Cell-cycle analysis (BrDU/PI flow cytometry); type: cell-based, human; details: 48 h post 10 μM melphalan, 2 hour treatment
Method: as §1

8226/LR5 cells = test: Alkaline comet assay, ICL formation and removal; type: cell-based, human; details: within 17 hours after maximum ICL formation; 2 h exposure to 50 μM melphalan
Method: (§2) The alkaline comet assay was used to detect melphalan induced DNA crosslinks in 8226 and 8226/LR5 myeloma cells (Hazlehurst et al., 2003). To examine the dose response, 2×10^5 cells were treated with 25 μM. 50 μM and 100 μM melphalan or vehicle control for two hours, washed in PBS and cultured in drug-free medium for another three hours culture. After drug treatment, samples were irradiated at 900 rads (MARK I model 68A irradiator). The alkaline comet assay was performed according to the manufacturer's instructions (Travegene). Fifty images per slide were randomly captured by fluorescence microscopy and images were quantified using LAI comet analysis software (Loats Associates, Inc. Westminster, Md.). The percent crosslinking was calculated as follows: Relative crosslinking=(1-(Comet moment drug treated-comet moment control/comet moment 900 rads-comet moment control))×100. To examine the ICL formation and removal, 8226 and LR5 were incubated in 25 μM or 50 μM melphalan and vehicle control, respectively for 2 hours after which they were cultured in drug free medium for various times. Cells were collected at 0 h, 3 h, 8 h and 23 h after 2 h drug treatment to perform the comet assay. […] An analysis of variance (ANOVA) model was used to quantify the relationship between the response variable and the two independent variables.

8226 cells [2] = test: Alkaline comet assay, ICL formation and removal; type: cell-based, human; details: within 17 hours after maximum ICL formation; 2 h exposure to 25 μM melphalan
Method: as §2

[3] = system: plasma cells from bone marrow aspirates of myeloma patients; test: Melphalan-induced apoptosis of patient specimens (TUNEL, kappa/lambda staining); type: cell-based, human; details: 10 patient specimens
Source text: To determine if CAM-DR occurred in patient specimens as well as myeloma cell lines, a double immunofluorescent assay was developed to simultaneously detect apoptotic plasma cells. After obtaining IRB approved consent, mononuclear cells from bone marrow aspirates obtained from patients with stage II and III myeloma were isolated by ficol-hypaque centrifugation and placed in αMEM media. One million cells/ml were adhered to FN or placed in suspension (0.1% poly-hema coated wells) for 2 hrs in serum free αMEM media. Following two hours of adhesion, fresh media with 15% FBS was added and cells were incubated for an additional 12-16 hrs. Following adhesion overnight, cells were treated with 200 uM melphalan for two hours and extracellular drug was removed and maintained in drug free media for an additional 24 hrs prior to fixation. Plasma cells were identified by either positive kappa or lambda staining (Vector laboratories, Burlingame, Calif.) and apoptotic plasma cells were identified by TUNEL analysis labeling using a commercially available kit (Intergen company, Purchase, N.Y., Cat. S7110). Fluorescence microscopy (Vysis, Downers Grove, Ill.) was used to count 500 total plasma cells per slide. Results following cell adhesion were compared to mononuclear cells exposed to melphalan in suspension culture.

[4] = system: 8226 cells adhered to FN (8226/FN); test: Alkaline comet assay of melphalan induced DNA crosslinks; type: cell-based, human; details: 2 h, FIG. 3B
Method: (§3) The alkaline comet assay was used to detect melphalan induced DNA crosslinks in 8226 myeloma cells. Cells cultured in suspension or adhered to FN were treated with varying doses of melphalan or vehicle control for two hours. Following drug treatment, single strand breaks were induced, by irradiating appropriate samples at 900 rads (MARK I model 68A irradiator). After drug treatment and irradiation, 5,000 cells were placed in a microcentrifuge tube containing 1 ml cold PBS, and the alkaline comet assay was performed as described by Kent et al. (1995). Fifty images were randomly captured per slide, and images by fluorescence microscopy were quantified using Optimus^R software as previously described (Hazlehurst et al., 2001; Kent et al., 1995).
(§4) The percent crosslinking was calculated as follows:
(§5) The data shown are the means of three independent experiments (n=50 images for each dose of each independent experiment). An analysis of variance (ANOVA) model was used to quantify the relationship between the response variable and the two independent variables.

[5] = system: 8226 cells in suspension (8226/SUS); test: as above; type: cell-based, human; details: 2 h
Method: as §3, §4, §5

8226/LR5 cell line = test: as above; type: cell-based, human; details: 2 h, FIG. 3A
Method: as §3, §4, §5

Row | Compound | effect on resistance to melphalan (LR5 cell line) | cell cycle effect (LR5 cells) | cell cycle effect (8226 cells [1]) | ICL removed (8226/LR5 cells) [%] | removal of ICL (8226 cells [2]) | mean percent apoptosis of plasma cells ([3]; adhered to FN prior to treatment with 200 uM melphalan) [%] | mean percent apoptosis of plasma cells ([3]; maintained in cell suspension, 200 uM melphalan) [%] | percent crosslinking, 8226/FN Mean (SE) ([4]; 25 uM melphalan) | percent crosslinking, 8226/FN Mean (SE) ([4]; 50 uM melphalan) | percent crosslinking, 8226/FN Mean (SE) ([4]; 100 uM melphalan) | percent crosslinking, 8226/SUS Mean (SE) ([5]; 25 uM melphalan, FIG. 3A) | percent crosslinking, 8226/SUS Mean (SE) ([5]; 25 uM melphalan, FIG. 3B) | percent crosslinking, 8226/SUS Mean (SE) ([5]; 50 uM melphalan, FIG. 3B) | percent crosslinking, 8226/SUS Mean (SE) ([5]; 100 uM melphalan, FIG. 3A) | percent crosslinking, 8226/SUS Mean (SE) ([5]; 100 uM melphalan, FIG. 3B) | percent crosslinking, 8226/LR5 Mean (SE) (8226/LR5 cell line; 25 uM melphalan) | percent crosslinking, 8226/LR5 Mean (SE) (8226/LR5 cell line; 50 uM melphalan) | percent crosslinking, 8226/LR5 Mean (SE) (8226/LR5 cell line; 100 uM melphalan)
1 | CCCCS(=N)(=O)CCC(N)C(=O)O (stereo not drawn) [buthionine sulfoximine] | partially reversed resistance to melphalan |  |  |  |  |  |  |  |  |  |  |  |  |  |  |  |  | 
2 | N[C@@H](Cc1ccc(N(CCCl)CCCl)cc1)C(=O)O [melphalan, Melphalan] |  | continue cell cycle progression | arrested in G2/M phase | 40 | no significant removal of ICL | 27.7 | 55.6 | 29.11 (0.888) % | 47.73 (2.141) % | 72.03 (2.09) % | 20.31 (9.579) % | 22.40 (9.458) % | 46.27 (5.850) % | 67.31 (4.110) % | 70.67 (6.175) % | −4.49 (16.687) % | 14.02 (8.648) % | 47.32 (9.121) %
